{
  "source": "patent US11672758B2",
  "about": "“Endoxifen methods and compositions for inhibition of protein kinase C” (Jina Pharmaceuticals, Inc., priority 2006, dated 2023)",
  "key": {"Parkinsonian monkeys": {"tested_on": "Parkinsonian monkeys", "conditions": "co-administered with levodopa to Parkinsonian monkeys; cited from earlier work"}, "patients": {"tested_on": "patients", "conditions": "patients on raloxifene for osteoporosis; cited from earlier work"}, "[1]": {"conditions": "cited from earlier work"}, "PKC": {"tested_on": "PKC", "assay": "PKC kinase activity assay kit (Assay Designs)", "assay_type": "biochemical", "conditions": "for percentage PKC inhibition: PKC 10 ng/well", "procedure": "A PKC kinase activity assay kit (Assay Designs, Ann Arbor, Mich.) was used to test endoxifen PKC inhibitory activity 0.025, 0.05, 0.1, or 0.2 mM endoxifen was used in a reaction mix containing PKC 10 ng/well."}, "[2]": {"assay": "Comparative pharmacokinetic study in rats", "assay_type": "in vivo", "conditions": "oral 10 mg/kg endoxifen versus 10 mg/kg tamoxifen"}, "male Balb/c mice": {"tested_on": "male Balb/c mice", "assay": "Toxicity testing, intravenous single and repeat dose in mice", "assay_type": "in vivo", "procedure": "Endoxifen was formulated according to Example 6 and was tested for toxicity in male Balb/c mice. A single test dose at 100 mg/kg or 50 mg/kg was intravenously administered to mice. […] The mice also survived in the control group with a vehicle control that lacked endoxifen. Repeat dose toxicity study was conducted with a dose of 25 mg/kg administered consecutively for 3 days with accumulated dose of 75 mg/kg. […] The results are reported in the table below as the number of mice surviving per total."}},
  "note": "“And” between values parts separate entries of the source, which are not always exact repeats. Identical values can stand only once. Like-named read-outs stand apart in the source and are kept apart here.",
  "data": [
    {"compound": "CC/C(=C(\\c1ccccc1)c1ccc(OCCN(C)C)cc1)c1ccccc1", "note": "[tamoxifen, reference compound]", "values": [
      {"measurement": "attenuation of levodopa-induced dyskinesias", "setting": "Parkinsonian monkeys", "result": 61, "unit": "%"}
    ]},
    {"compound": "O=C(c1ccc(OCCN2CCCCC2)cc1)c1c(-c2ccc(O)cc2)sc2cc(O)ccc12", "note": "[raloxifene]", "values": [
      {"measurement": "reduction in risk of mild cognitive impairment", "setting": "patients", "result": 33, "unit": "%"}
    ]},
    {"compound": "4-hydroxy tamoxifen [4-OH-tamoxifen, reference compound]", "values": [
      {"measurement": "concentration in the human plasma", "setting": "[1]; human, in vivo", "result": 1, "unit": "ng/mL"}
    ]},
    {"compound": "CC/C(=C(\\c1ccc(O)cc1)c1ccc(OCCNC)cc1)c1ccccc1", "note": "[Endoxifen, 4-hydroxy N-desmethyl tamoxifen]", "values": [
      {"measurement": "concentration in the human plasma", "setting": "[1]; patients treated with tamoxifen", "result": 12.4, "unit": "ng/mL"},
      {"measurement": "percentage PKC inhibition", "setting": "PKC; 0.2 mM", "result": 80, "unit": "%"},
      {"measurement": "percentage PKC inhibition", "setting": "PKC; […]", "result": 12, "unit": "%"},
      {"measurement": "potency as PKC inhibitor relative to tamoxifen", "setting": "PKC; endoxifen versus tamoxifen", "result": "at least four fold more potent"},
      {"measurement": "endoxifen plasma concentration compared to that after same dose of tamoxifen", "setting": "[2]", "result": 10, "unit": "fold"},
      {"measurement": "Survival/Total", "setting": "male Balb/c mice; repeat dose 25 mg/kg consecutively for 3 days, accumulated dose 75 mg/kg", "result": "4/4"},
      {"measurement": "loss of body weight", "setting": "male Balb/c mice; single dose 50 mg/kg intravenous", "result": "no significant loss of body weight"},
      {"measurement": "Survival/Total", "setting": "male Balb/c mice; single dose 50 mg/kg intravenous, formulated according to Example 6, 50 mg/kg", "result": "all animals survived and 4/4"},
      {"measurement": "Survival/Total", "setting": "male Balb/c mice; single dose 100 mg/kg intravenous, formulated according to Example 6, 100 mg/kg", "result": "All the mice died and 0/2"}
    ]}
  ]
}
